{
  "source": "patent US20020187998A1",
  "about": "“Local ophthalmic agent for treatment of ocular inflammation” (Sucampo AG, priority 2001, published 2002)",
  "assay_type_in_all_cases": "in vivo, human",
  "key": {"[1]": {"system": "inflammations caused by foreign bodies (cat hair, cat dander, pollens of a tree, ragweed or grass) instilled in the eye", "test": "Itching on the eye after ocular instillation of foreign bodies, 3 hours after FK506 eye drops (Example 1)", "settings": "foreign bodies 3 hours after instillation, graded 5 minutes later, score 0-4, FIG. 1", "text": "In a total of four groups each having 30 persons, FK506 eye drops (0.01%, 0.06% and 0.1%) were instilled in the respective experimental groups, and placebo was instilled in the control group. Three hours after the ocular instillation, various foreign bodies (cat hair, cat dander, and pollens of a tree, ragweed or grass) were ocularly instilled in both the experimental groups and the control group, thus causing inflammations. Five minutes later, itching on the eye was graded according to five-rank scores (0-4). The decreases from the score (baseline) in instilling only foreign bodies were calculated."}, "[2]": {"system": "inflammations caused by foreign bodies (cat hair, cat dander, pollens of a tree, ragweed or grass) instilled in the eye", "test": "Conjunctival hyperemia and chemosis after ocular instillation of foreign bodies, 16 hours after final instillation (Example 2)", "settings": "0.1% FK506 eye drops once a day for one week", "method": "FK506 was ocularly instilled in the subjects once a day for one week, and the same amount of placebo was ocularly instilled in the control group. At 16 hours after the final ocular instillation, various foreign bodies (cat hair, cat dander, and pollens of a tree, ragweed or grass) were ocularly instilled in both the experimental groups and the control group, thus causing the inflammations. Ten minutes later, conjunctival hyperemia and chemosis were graded according to five-rank scores (0-4). The changes from the score (baseline) in instilling only foreign bodies were calculated."}, "[3]": {"system": "progressive corneal ulcer caused by pemphigoid", "test": "Patient case, FK506 eye drops (Example 3)", "settings": "0.06% FK506 eye drops three times a day, one patient", "text": "A patient suffering from progressive corneal ulcer caused by pemphigoid was instilled with 0.06% FK506 eye drops three times a day."}, "[4]": {"system": "progressive Mooren's ulcer", "test": "Patient case, FK506 eye drops (Example 4)", "settings": "0.06% FK506 eye drops three times a day, one patient", "text": "A patient suffering from progressive Mooren's ulcer was instilled with 0.06% FK506 eye drops three times a day."}, "[5]": {"system": "chronic nummular keratitis", "test": "Patient case, FK506 eye drops (Example 5)", "settings": "0.06% FK506 eye drops three times a day, one patient", "text": "A patient suffering from chronic nummular keratitis was instilled with 0.06% FK506 eye drops three times a day."}, "Thygeson keratitis": {"system": "Thygeson keratitis", "test": "Patient case, FK506 eye drops (Example 6)", "settings": "0.06% FK506 eye drops three times a day"}, "[6]": {"system": "inflammations caused by injury after penetrating keratoplasty, history of steroid glaucoma and chronic rejection", "test": "Patient case, FK506 eye drops after penetrating keratoplasty (Example 7)", "settings": "0.06% FK506 eye drops three times a day", "text": "As a result, the progression of inflammations caused by injury was arrested and such effects were maintained at 34 weeks later."}, "[7]": {"system": "blepharokeratoconjunctivitis", "test": "Patient case, FK506 eye drops (Example 8)", "settings": "0.06% FK506 eye drops three times a day"}, "[8]": {"system": "penetrating keratoplasty due to keratoconus", "test": "Patient case, FK506 eye drops after penetrating keratoplasty due to keratoconus (Example 9)", "settings": "0.06% FK506 eye drops three times a day"}, "[9]": {"settings": "one patient without conventional therapy"}},
  "data": [
    {"smiles": "C=CC[C@@H]1/C=C(\\C)C[C@H](C)C[C@H](OC)[C@H]2O[C@@](O)(C(=O)C(=O)N3CCCC[C@H]3C(=O)O[C@H](/C(C)=C/[C@@H]3CC[C@@H](O)[C@H](OC)C3)[C@H](C)[C@@H](O)CC1=O)[C@H](C)C[C@@H]2OC", "note": "[FK506, 17-allyl-1,14-dihydroxy-12-[2-(4-hydroxy-3-methoxycyclohexyl)-1-methylvinyl]-23,25-dimethoxy-13,19,21,27-tetramethyl-11,28-dioxa-4-azatricyclo [22.3.1.0^4,9]octacos-18-ene-2,3,10,16-tetraone]", "values": [
      {"measurement": "decreases of itching score from the baseline, compared with placebo", "setting": "[1]; 0.01% FK506 eye drops", "value": "decreases of itching were greater"},
      {"measurement": "decreases of itching score from the baseline, compared with placebo", "setting": "[1]; 0.06% FK506 eye drops", "value": "decreases of itching were greater"},
      {"measurement": "decreases of itching score from the baseline, compared with placebo", "setting": "[1]; 0.1% FK506 eye drops", "value": "decreases of itching were greater"},
      {"measurement": "duration of ocular anti-inflammatory effects (antiedemic effect and anti-flare effect)", "setting": "[2]", "value": "at least 16 hours"},
      {"measurement": "Changes of chemosis scores from the baseline, mean ± S.E.", "setting": "[2]; challenge 16 hours after final instillation, graded 10 minutes later, score 0-4, p < 0.001", "value": "−0.30 ± 0.07"},
      {"measurement": "Changes of conjunctival hyperemia scores from the baseline, mean ± S.E.", "setting": "[2]; challenge 16 hours after final instillation, graded 10 minutes later, score 0-4, p < 0.01", "value": "−0.51 ± 0.07"},
      {"measurement": "improving effects", "setting": "[3]", "value": "significant improving effects were observed"},
      {"measurement": "time at which effects were maintained", "setting": "[3]", "value": 43, "unit": "weeks"},
      {"measurement": "improving effects", "setting": "[4]", "value": "significant improving effects were observed"},
      {"measurement": "time at which effects were maintained", "setting": "[4]", "value": 41, "unit": "weeks"},
      {"measurement": "improving effects", "setting": "[5]", "value": "significant improving effects were observed"},
      {"measurement": "time at which effects were maintained", "setting": "[5]", "value": 43, "unit": "weeks"},
      {"measurement": "time until improving effects were observed", "setting": "[5]", "value": "two"},
      {"measurement": "time at which effects were maintained", "setting": "Thygeson keratitis; one patient", "value": 41, "unit": "weeks"},
      {"measurement": "time until improving effects were observed", "setting": "Thygeson keratitis; one patient", "value": "three"},
      {"measurement": "improving effects", "setting": "Thygeson keratitis; [9]", "value": "significant improving effects were observed"},
      {"measurement": "progression of inflammations caused by injury", "setting": "[6]; one patient", "value": "arrested"},
      {"measurement": "time at which effects were maintained", "setting": "[6]; one patient", "value": 34, "unit": "weeks"},
      {"measurement": "intraocular pressure increase", "setting": "[6]; patient with history of steroid glaucoma", "value": "no intraocular pressure increase was observed"},
      {"measurement": "time at which effects were maintained", "setting": "[7]; one patient", "value": 18, "unit": "weeks"},
      {"measurement": "time until improving effects were observed", "setting": "[7]; one patient", "value": "two"},
      {"measurement": "improving effects", "setting": "[7]; [9]", "value": "significant improving effects were observed"},
      {"measurement": "time at which effects were maintained", "setting": "[8]; one patient", "value": 25, "unit": "weeks"},
      {"measurement": "improving effects", "setting": "[8]; [9]", "value": "significant improving effects were observed"}
    ]}
  ]
}
